Series [1] relates to human bronchial epithelial cells. Kind of series: Ussing chamber assay of Forskolin-induced chloride channel activity. The class given is cell-based. The following applies: all groups. The procedure: The changes in chloride transport across the bronchial epithelial cell membrane was measured by short circuit current output in an Ussing epithelial voltage clamp apparatus (i.e., a Ussing chamber). Specifically, using an established Ussing Chamber procedure (Charles River Laboratories), hCFTR mRNA encapsulated in a liposome comprising ICE, DOPE, and a PEG-modified lipid was incubated for 2 or 4 hours on the apical (mucosal) or basolateral (serosal) sides, or both sides, of human bronchial epithelial cells. A buffer blank also was included as a control, for example, to assess chloride transport by endogenous CFTR in the cells. Next, Forskolin-induced chloride channel activity was measured using the Ussing chamber assay.

The conditions of series [2]: available data; cited from earlier work.

For `O=C(O)c1ccc(/C=C2\SC(=S)N(c3cccc(C(F)(F)F)c3)C2=O)cc1` [CFTR inhibitor-172], the “chloride activity after addition of CFTR inhibitor” value in series [1] is recorded as “inhibited”.

In the case of `CC(C)CCC[C@@H](C)[C@H]1CC[C@H]2[C@@H]3CC=C4C[C@@H](O)CC[C@]4(C)[C@H]3CC[C@]12C` [cholesterol], in series [2], the mutagenicity/genotoxicity data entry was “negative”.

Consider `c1c[nH]cn1` [imidazole], for which the mutagenicity/genotoxicity data entry in series [2] was “negative”.

Consider `CCC(=O)O` [propionic acid], for which, in series [2], the mutagenicity/genotoxicity data result was “negative”.

The record behind these values is patent publication US12702693B2, “Treatment of cystic fibrosis by delivery of codon-optimized mRNA encoding CFTR” (Translate Bio, Inc., priority 2017, dated 2026).
